{
  "source": "paper PMC8931317",
  "about": "(Proceedings of the National Academy of Sciences of the …, 2022)",
  "biological_target": "T1, YeiE (CsYeiE) (Cronobacter sakazakii, UniProt H9BVC9)",
  "T1 sequence (H9BVC9 85-288)": "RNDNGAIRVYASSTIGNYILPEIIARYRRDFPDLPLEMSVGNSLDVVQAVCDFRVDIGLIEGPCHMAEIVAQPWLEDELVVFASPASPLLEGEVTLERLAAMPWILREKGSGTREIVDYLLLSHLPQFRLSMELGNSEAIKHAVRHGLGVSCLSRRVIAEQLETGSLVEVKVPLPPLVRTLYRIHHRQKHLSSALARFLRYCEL",
  "experiment": "ITC",
  "format": "binding",
  "data": [
    {"smiles": "O=S(O)O", "note": "[sulfite]", "values": [
      {"measurement": "Kd", "result": 1.38, "unit": "µM"}
    ]}
  ]
}
